Data: US4490363A, “Metorphamide--a novel morphine-like peptide” (Board of Trustees of The Leland Stanford Junior University …, priority 1983, dated 1984)
Read-outs that look alike come from different tables or passages of the source. Peptide text beside a SMILES is read from it.

Tests used:
Rabbit vas deferens = assay: Opioid bioassay, rabbit vas deferens; assay type: cell-based; conditions: mean±SEM; peptidases inhibited by bestatin (30 μM), L-leucyl-L-leucine, thiorphan, captopril
Protocol: (§1) Bioassays were performed using preparations of the myenteric plexus-longitudinal muscle of the guinea pig and the vasa deferentia of the mouse, rabbit and rat. According to the procedures described by McKnight et al., Eur. J. Pharmacol., 86, 393-402 (1983) and Corbett et al., Nature, 299, 79-81 (1982). The drugs were prepared as 1 mg/ml stock solutions in water and dilutions were made in Krebs solution. The bioassays were performed on [Met 5] enkephalin and C-terminally extended Met 5 enkephalins, and compared with metorphamide.
(§2) The values shown are the mean±SEM of 4 observations and of 6 for [Met^5 ]enkephalyl-Arg-Arg-Val-Gly. The activity of the peptidases was inhibited by bestatin (10 μM, or 30 μM in the rat and rabbit), L-leucyl-L-leucine ([…]), thiorphan (0.3 μM) and captopril (10 μM).

Mouse vas deferens [1] = conditions: values marked ** (from literature); cited from earlier work
[2] = test system: myenteric plexus-longitudinal muscle of the guinea pig; conditions: values marked ** (from literature); cited from earlier work
μ-site = assay: Binding assay in guinea pig brain homogenates, μ-ligand [3H]-[D-Ala2,MePhe4,Gly-ol5]enkephalin; conditions: for Ki: guinea-pig brain homogenates, 150 minutes at 0° C., mean ±SEM, read-out: KI, [3H]-[DAla2,MePhe4,Gly-ol5]enkephalin (μ-site)
Protocol: (§3) [^3 H]-[D-Ala^2,MePhe^4, Gly-ol^5 ]enkephalin (1 nM) was used as μ-ligand, [^3 H]-[D-Ala^2,D-Leu^5 ]enkephalin (1 nM) as a relatively selective δ-ligand and [^3 H]-(-)-bremazocine (0.3 nM) as κ-ligand, in the presence of 100 nM each of unlabelled [D-Ala^2,MePhe^4,Gly-ol^5 ]enkephalin and [D-Ala^2,D-Leu^5 ]enkephalin for the suppression of μ- and δ-binding.
(§4) The μ- and […] of [^3 H]-(-)-bremazocine was suppressed with 100 nM each of unlabelled [D-Ala^2,MePhe^4,Gly-ol^5 ]enkephalin and [D-Ala^2,D-Leu^5 ]enkephalin.

δ-site = assay type: binding, guinea pig; conditions: for Ki: guinea-pig brain homogenates, 150 minutes at 0° C., mean ±SEM, read-out: KI, [3H]-[DAla2,D-Leu5]enkephalin (δ-site)
Protocol: as §3, §4

Rat vas deferens [3] = conditions: values marked ** (from literature); cited from earlier work
Mouse vas deferens [4] = assay: Opioid bioassay, mouse vas deferens; assay type: cell-based; conditions: mean±SEM; peptidases inhibited by bestatin, L-leucyl-L-leucine, thiorphan, captopril
Protocol: as §1, §2

[5] = test system: myenteric plexus-longitudinal muscle of the guinea pig; assay: Opioid bioassay, guinea-pig myenteric plexus-longitudinal muscle; assay type: cell-based; conditions: mean±SEM; peptidases inhibited by bestatin, L-leucyl-L-leucine, thiorphan, captopril
Protocol: as §1, §2

Rat vas deferens [6] = assay: Opioid bioassay, rat vas deferens; assay type: cell-based; conditions: peptidases inhibited by bestatin (30 μM), L-leucyl-L-leucine, thiorphan, captopril
Protocol: as §1, §2

[7] = test system: anti-serum (R1-3) to synthetic metorphamide; assay: Radioaminoassay of metorphamide: cross-reaction with anti-serum R1-3, 125I-labeled synthetic metorphamide as tracer; assay type: binding, rabbit; conditions: on a molar basis
Text: An anti-serum to synthetic metorphamide was generated in male New Zealand white rabbits by injecting synthetic peptide linked to bovine thyroglobulin by carbodiimide according the method of Weber et al., J. Neurochem., 38, 436-447 (1982). The resulting anti-serum (R1-3) was used in a radioaminoassay using ^125 I labeled synthetic metorphamide as a tracer. The procedure used was as described by Weber et al. with modifications described by Weber et al., Nature, 299, 77-79 (1982). The metorphamide or radioaminoassay requires the carboxylterminal amide group as part of the recognition site. On a molar basis the free carboxy derivative of metorphamide cross reacts with less than 1.02% and the analog of metorphamide in which the carboxyterminal amide was substituted by a Glycine residue cross reacts at less than 0.3%. The adrenal medulla opioid peptides Bam-22 and Bam-12 (Mizuno et al., Biochem. Biophys. Res. Commun., 95, 1482-1488 (1980); Mizuno et al., Biochem. Biophys. Res. Commun., 97, 1283-1290 (1980)) which are carboxyterminal extensions of metorphamide both cross react less than 0.006% in the radioaminoassay.

κ-site = molecular target: T1, κ-site (Cavia porcellus, UniProt P41144); assay: Binding assay in guinea pig brain homogenates, [3H]-(-)-bremazocine after suppression of μ- and δ-binding
T1 construct: The assays used homogenates of guinea-pig brain; from tissue; host or cells: guinea pig brain homogenate
Protocol: as §3, §4

carboxypeptidase A = molecular target: T2, carboxypeptidase A (Bos taurus, UniProt P00730); assay: Carboxypeptidase A digestion of bovine metorphamide and dynorphin; assay type: in vitro ADME; conditions: 400 ng enzyme, 37° C., pH 7.5
T2 construct: purchased Sigma (printed as σ) type 1-DFP
T2 sequence (P00730 111-419): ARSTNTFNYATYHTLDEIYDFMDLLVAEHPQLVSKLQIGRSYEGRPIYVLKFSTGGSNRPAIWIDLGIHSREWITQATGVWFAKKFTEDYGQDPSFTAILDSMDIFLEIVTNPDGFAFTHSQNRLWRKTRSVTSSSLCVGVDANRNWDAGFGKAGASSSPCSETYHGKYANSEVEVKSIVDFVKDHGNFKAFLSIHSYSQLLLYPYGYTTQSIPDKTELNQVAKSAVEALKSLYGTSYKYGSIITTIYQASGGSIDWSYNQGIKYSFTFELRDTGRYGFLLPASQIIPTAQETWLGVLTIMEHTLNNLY
Protocol: A mixture of bovine metorphamide (30-35 pmol.) and synthetic dynorphin (60-70 pmol.) was dissolved in 1.6 ml. 0.02 m Tris buffer, containing 0.2 m NaCl and 0.1% Triton X-100, pH 7.5. 5 μl of a 20 mg/ml suspension of carboxypeptidase A (σ, type 1-DFP) containing 100 μg enzyme were dissolved in 1 ml. 10% LiCl. […] aliquots were withdrawn at times 1, 5, 10 and 60 minutes an equal volume of glacial acetic acid was added to each sample to terminate the enzyme reaction. After evaporation, the samples were assayed in triplicate by radioaminoassay for dynorphin and metorphamide. 0 time samples were withdrawn before enzyme was added to determine the amounts of peptides that were initially present in the incubation mixture. A separate sample of peptide mixture that received 4 μl of 10% LiCl without the enzyme was incubated at 37° C. for 60 minutes and 50 μl aliquots of this sample were also assayed for metorphamide and dynorphin. This latter sample served as a control for any non-specific degradation of peptide that may have occurred by unknown factors. […] The results of the digestion are shown in FIG. 2 wherein the metorphamide is indicated by O--O and dynorphin by X--X. Bovine metorphamide was stable to carboxypeptidase A digestion for at least 60 minutes while dynorphin was completely digested by the enzyme after 5 minutes.

[8] = at KD concentrations of the tritiated ligands, total binding=1

T1 sequence (P41144 whole entry): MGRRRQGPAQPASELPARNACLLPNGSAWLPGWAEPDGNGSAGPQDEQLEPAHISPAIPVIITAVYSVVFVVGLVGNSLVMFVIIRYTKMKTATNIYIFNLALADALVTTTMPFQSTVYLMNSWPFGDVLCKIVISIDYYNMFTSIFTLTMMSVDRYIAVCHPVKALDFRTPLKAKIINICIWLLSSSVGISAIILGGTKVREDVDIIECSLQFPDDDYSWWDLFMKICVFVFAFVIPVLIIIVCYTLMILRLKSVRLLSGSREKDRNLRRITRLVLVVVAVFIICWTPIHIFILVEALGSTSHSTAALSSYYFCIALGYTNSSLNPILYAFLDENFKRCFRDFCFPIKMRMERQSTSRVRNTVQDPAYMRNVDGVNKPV

CSCC[C@H](NC(=O)[C@H](Cc1ccccc1)NC(=O)CNC(=O)CNC(=O)[C@@H](N)Cc1ccc(O)cc1)C(=O)O [A, [Met^5]enkephalin]
IC50 (Rabbit vas deferens): > 10000 nM
IC50 (Mouse vas deferens [1]): 1.45 nM
IC50 [2]: 6.7 nM
Ki (μ-site): 9.5 ± 0.54 nM
Ki (δ-site): 0.91 ± 0.07 nM
IC50 (Rat vas deferens [3]): 260 nM

CSCC[C@H](NC(=O)[C@H](Cc1ccccc1)NC(=O)CNC(=O)CNC(=O)[C@@H](N)Cc1ccc(O)cc1)C(=O)N[C@@H](CCCNC(=N)N)C(=O)N[C@@H](CCCNC(=N)N)C(=O)N[C@H](C(=O)NCC(=O)O)C(C)C [E] (H-YGGFMRRVG-OH; N-terminus and C-terminus assumed)
IC50 (Rabbit vas deferens): 54.7 ± 11 nM
IC50 (Mouse vas deferens [4]): 21.4 ± 3.1 nM
IC50 [5]: 6.62 ± 0.8 nM
IC50 (Rat vas deferens [6]): > 3000 nM
Ki (μ-site): 1.39 ± 0.23 nM
cross reaction in the metorphamide radioaminoassay [7]: less than 0.3%
Ki (δ-site): 8.58 ± 1.54 nM

CSCC[C@H](NC(=O)[C@H](Cc1ccccc1)NC(=O)CNC(=O)CNC(=O)[C@@H](N)Cc1ccc(O)cc1)C(=O)N[C@@H](CCCNC(=N)N)C(=O)N[C@@H](CCCNC(=N)N)C(=O)N[C@H](C(=O)O)C(C)C [D, [Met^5 ]enkephalylArg-Arg-Val]
Ki (κ-site): 2.11 ± 0.29 nM

CC[C@H](C)[C@H](NC(=O)[C@H](CCCNC(=N)N)NC(=O)[C@H](CCCNC(=N)N)NC(=O)[C@H](CC(C)C)NC(=O)[C@H](Cc1ccccc1)NC(=O)CNC(=O)CNC(=O)[C@@H](N)Cc1ccc(O)cc1)C(=O)N[C@@H](CCCNC(=N)N)C(=O)N1CCC[C@H]1C(=O)N[C@@H](CCCCN)C(=O)N[C@@H](CC(C)C)C(=O)N[C@@H](CCCCN)C(=O)N[C@@H](Cc1c[nH]c2ccccc12)C(=O)N[C@@H](CC(=O)O)C(=O)N[C@@H](CC(N)=O)C(=O)N[C@@H](CCC(N)=O)C(=O)O [dynorphin]
time after which completely digested by carboxypeptidase A (carboxypeptidase A): 5 min

CSCC[C@H](NC(=O)[C@H](Cc1ccccc1)NC(=O)CNC(=O)CNC(=O)[C@@H](N)Cc1ccc(O)cc1)C(=O)N[C@@H](CCCNC(=N)N)C(=O)N[C@@H](CCCNC(=N)N)C(=O)N[C@H](C(N)=O)C(C)C [F]
IC50 (Rabbit vas deferens): 41.2 ± 4.9 nM
relative potency (relative affinity) at the κ-site (κ-site; [8]): 0.31
IC50 (Mouse vas deferens [4]): 6.2 ± 1.1 nM
IC50 [5]: 2.46 ± 0.34 nM
IC50 (Rat vas deferens [6]): > 3000 nM
relative potency (relative affinity) at the μ-site (μ-site; [8]): 0.66
Ki (μ-site): 0.115 ± 0.019 nM
activity for the μ-binding site relative to that of morphine (μ-site; ratio of relative affinities): approximately 2/3
time stable to carboxypeptidase A digestion (carboxypeptidase A): at least 60 minutes
relative potency (relative affinity) at the δ-site (δ-site; [8]): 0.03
Ki (δ-site): 2.65 ± 0.23 nM

CSCC[C@H](NC(=O)[C@H](Cc1ccccc1)NC(=O)CNC(=O)CNC(=O)[C@@H](N)Cc1ccc(O)cc1)C(=O)N[C@@H](CCCNC(=N)N)C(=O)N[C@@H](CCCNC(=N)N)C(=O)O [C, [Met^5]enkephalylArg-Arg]
Ki (κ-site): 11.2 ± 1.8 nM
